In BindingDB's records for doi:10.1016/j.ejmech.2014.09.012 (Shandong University, 2014):

Assay: Inhibition of HIV-1 isolate YTA48P HIV-1 gp120

CC1(C)CC(NC(=O)C(=O)Nc2ccc(Cl)cc2)CC(C)(C)N1 [N-(4-chlorophenyl)-N'-(2,2,6,6-tetramethylpiperidin-4-yl)-oxalamide]
IC50: 610 nM
